Values of other authors, collected in publication PMC11659887 (ACS Bio & Med Chem Au, 2024).

Test system: SARS-CoV-2 M^pro E166Q

CC(C)(C)[C@H](NC(=O)C(F)(F)F)C(=O)N1C[C@H]2[C@@H]([C@H]1C(=O)N[C@H](C#N)C[C@@H]1CCNC1=O)C2(C)C [nirmatrelvir, Nirmatrelvir]
resistance to nirmatrelvir: no significant resistance
